From patent publication US7718680B2 (priority 2004, dated 2010)
Read-outs that look alike come from different tables or passages of the source.

Assays:
[1] = target: T1, Lethal Factor (LF) protease of anthrax toxin (Bacillus anthracis, UniProt P15917); test: biochemical
[2] = tested on: macrophages; format: cell-based
[3] = target: T1, Lethal Factor (LF) protease of anthrax toxin; test: biochemical; remark: listed apart in the source

T1 sequence (P15917 34-809 limits assumed): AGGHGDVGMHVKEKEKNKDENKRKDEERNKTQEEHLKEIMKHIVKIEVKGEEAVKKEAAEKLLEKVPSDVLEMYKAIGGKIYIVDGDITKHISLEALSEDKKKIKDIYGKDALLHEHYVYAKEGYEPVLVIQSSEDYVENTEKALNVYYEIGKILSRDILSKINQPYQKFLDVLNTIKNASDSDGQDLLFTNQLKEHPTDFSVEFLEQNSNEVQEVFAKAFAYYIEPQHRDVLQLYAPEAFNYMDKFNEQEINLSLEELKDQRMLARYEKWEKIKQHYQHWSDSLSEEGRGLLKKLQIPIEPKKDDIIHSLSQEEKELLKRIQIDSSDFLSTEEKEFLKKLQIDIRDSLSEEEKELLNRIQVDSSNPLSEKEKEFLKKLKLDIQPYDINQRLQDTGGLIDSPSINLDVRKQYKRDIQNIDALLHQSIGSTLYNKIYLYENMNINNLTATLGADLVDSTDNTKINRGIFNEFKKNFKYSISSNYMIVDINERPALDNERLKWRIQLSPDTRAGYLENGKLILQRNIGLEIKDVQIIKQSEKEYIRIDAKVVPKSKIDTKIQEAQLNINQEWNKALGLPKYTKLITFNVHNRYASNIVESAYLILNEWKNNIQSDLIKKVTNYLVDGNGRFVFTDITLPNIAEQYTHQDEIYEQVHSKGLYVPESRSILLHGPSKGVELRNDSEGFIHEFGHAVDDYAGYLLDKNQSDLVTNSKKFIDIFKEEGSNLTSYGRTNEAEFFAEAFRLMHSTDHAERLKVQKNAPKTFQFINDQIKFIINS

Row | SMILES | IC50 ([1]; read-out: IC50) [µM] | pIC50 Obs [1] | further results
1 | O=C1NC(=S)S/C1=C\c1ccc(-c2ccc(Cl)c(Cl)c2)o1 [Compound 13] | 7.4 | – | inhibition at 10 µM ([1]; read-out: LF inhibition): > 70%
2 | O=C(O)CN1C(=O)/C(=C/c2ccc(-c3ccccc3)o2)SC1=S [BI-11C12] | 16.6 | 4.78 | –
3 | O=C(O)CN1C(=O)/C(=C/c2ncc(-c3ccc(Br)cc3)s2)SC1=S [BI-11E4] | 4.4 | 5.36 | –
4 | O=C1NC(=S)NC(=O)C1=Cc1ccc(-c2ccc(Cl)cc2)o1 [BI-11B12] | 4.4 | 5.36 | –
5 | O=C1NC(=S)NC(=O)C1=Cc1ccc(-c2ccccc2)s1 [BI-11C4] | 1.2 | 5.92 | –
6 | O=C1/C(=C/c2ccc(-c3ccccc3[N+](=O)[O-])o2)SC(=S)N1CCc1ccccc1 [Compound 6] | 31.9 | – | –
7 | O=C(O)CN1C(=O)/C(=C/c2ccc(-c3ccc(I)cc3)o2)SC1=S [Compound 16] | 5.5 | – | inhibition at 10 µM ([1]; read-out: LF inhibition): > 70%
8 | O=C(O)CN1C(=O)/C(=C/c2nccs2)SC1=S [BI-11D2] | 72.4 | 4.14 | –
9 | O=C(O)CN1C(=O)S/C(=C\c2ccc(-c3ccc(Cl)c(Cl)c3)o2)C1=O [BI-11D8] | 5.6 | 5.25 | –
10 | O=C(O)CN1C(=O)/C(=C/c2ccc(-c3ccccc3)s2)SC1=S [BI-11B10] | 0.74 | 6.13 | –
11 | O=C(O)CN1C(=O)/C(=C/c2ccc(-c3ccc(Cl)cc3)o2)SC1=S [BI-11A9] | 0.9 | 6.05 | –
12 | O=C(O)c1ccc(-c2ccc(/C=C3\SC(=S)N(Cc4cccnc4)C3=O)o2)cc1Cl [Compound 11] | 9.9 | – | –
13 | C=CCN1C(=O)/C(=C/c2ccc(-c3ccc(F)cc3)o2)SC1=S [Compound 3] | 50 | – | –
14 | O=C1NC(=S)NC(=O)C1=Cc1ccc(-c2cc(C(F)(F)F)ccc2Cl)o1 [BI-11C2] | 1.3 | 5.89 | –
15 | COc1ccc(-c2ccc(C=C3C(=O)NC(=S)NC3=O)o2)cc1Cl [BI-11C1] | 3 | 5.52 | –
16 | O=C(O)CN1C(=O)/C(=C/c2ccc(-c3cccs3)s2)SC1=S [BI-11D3] | – | 5.64 | –
17 | O=C(O)CN1C(=O)/C(=C/c2ccc(-c3ccc(Cl)c(Cl)c3)o2)SC1=S [BI-11B2] | 0.265 | 6.58 | potency relative to GM6001 [2]: 100 fold
18 | O=C(O)CN1C(=O)/C(=C/c2ncc(-c3ccc(F)cc3)s2)SC1=S [BI-11E3] | 22.4 | 4.65 | –
19 | O=C(O)CCN1C(=O)/C(=C/c2ccc(-c3ccc(Cl)cc3)o2)SC1=S [BI-MFM3] | 1.7 | 5.77 | Ki [1]: 0.8 ± 0.3 µM; effect on the Vmax [1]: no effect; type of inhibition [1]: competitive; inhibition at 10 µM ([1]; read-out: LF inhibition): > 70%; LF activity / cleavage of fluorinated peptide seen by 19F NMR [3]: Only the ^19F NMR signal relative to uncleaved peptide appears; inhibitory activity relative to GM6001 [3]: about twice as strong as GM6001
20 | O=C1/C(=C/c2ccc(-c3ccc(Cl)cc3)o2)SC(=S)N1Cc1ccco1 [Compound 2] | 150 | – | –

Row | SMILES | IC50 ([1]; read-out: IC50) [µM] | pIC50 Obs [1] | further results
21 | O=C(O)CN1C(=O)/C(=C/c2ccc(-c3cc(C(F)(F)F)ccc3Cl)o2)SC1=S [BI-11B3] | 0.195 | 6.71 | Ki [1]: 0.032 µM; LF activity / cleavage of fluorinated peptide seen by 19F NMR [3]: potent LF inhibition; potency relative to GM6001 [2]: 100 fold
22 | O=C(O)CN1C(=O)/C(=C/c2cccs2)SC1=S [BI-11D1] | 79.4 | 4.10 | –
23 | O=C(O)CN1C(=O)S/C(=C\c2ccc(/C=C3\SC(=S)N(CC(=O)O)C3=O)s2)C1=O [BI-11E2] | – | – | IC50 [1]: 1.58 µM
24 | CN1C(=N)NC(=O)/C1=C\c1ccc(-c2ccc(Cl)cc2)o1 [BI-11C5] | 200 | 3.70 | –
25 | O=C(O)CN1C(=O)/C(=C/c2ccco2)SC1=S [BI-9B9b] | 140 | 3.85 | inhibition at 140 µM ([1]; read-out: LF inhibition): 50%; inhibition at 140 µM ([3]; read-out: LF inhibition): 50%
26 | O=C1NC(=S)S/C1=C\c1ccc(-c2ccc(Br)c(Cl)c2)o1 [Compound 14] | 7 | – | inhibition at 10 µM ([1]; read-out: LF inhibition): > 70%
27 | CN1C(=N)NC(=O)/C1=C\c1ccc(-c2cc(C(F)(F)F)ccc2Cl)o1 [BI-11B11] | – | 4 | –
28 | C=CCN1C(=O)/C(=C/c2ccc(-c3ccc(C(=O)O)c(Cl)c3)o2)SC1=S [Compound 20] | 2.7 | – | –
29 | CN1C(NC(=O)O)=NC(=O)/C1=C\c1ccc(-c2ccc(Cl)cc2)o1 [BI-11C11] | – | >4 | IC50 [1]: > 100 µM
30 | O=C(O)CN1C(=O)/C(=C/c2ncc(-c3ccc(Cl)cc3)s2)SC1=S [BI-11D5] | 10 | 5.00 | –
31 | O=C(O)CN1C(=O)/C(=C/c2ccc(-c3cc(C(F)(F)F)ccc3Cl)o2)SC1=S [BI-11D9] | – | – | IC50 [1]: 5.9 µM
32 | O=C(O)CN1C(=O)/C(=C/c2ccc(-c3ccc(Cl)cc3)s2)SC1=S [BI-11D10] | 3.2 | 5.49 | –
33 | NS(=O)(=O)c1ccc(-c2ccc(/C=C3\SC(=S)N(CC(=O)O)C3=O)o2)cc1 [Compound 12] | 9.1 | – | –
34 | O=C(O)CCCN1C(=O)/C(=C/c2ccc(-c3ccc(Br)cc3)o2)SC1=S [Compound 21] | 2.3 | – | –
35 | O=C(O)CN1C(=O)/C(=C/c2ccc(-c3ccc(Cl)cc3[N+](=O)[O-])o2)SC1=S [BI-11A11] | 0.5 | 6.30 | –
36 | CNC(=O)[C@H](Cc1c[nH]c2ccccc12)NC(=O)[C@@H](CC(=O)NO)CC(C)C [GM6001, reference compound] | – | – | LF activity / cleavage of fluorinated peptide seen by 19F NMR [3]: reduced by approximately half
37 | O=C(O)CN1C(=O)/C(=C/c2ccc(-c3ccc(Br)cc3)o2)SC1=S [BI-11A10] | 0.85 | 6.07 | –
38 | COc1ccc(-c2cnc(/C=C3\SC(=S)N(CC(=O)O)C3=O)s2)cc1OC [BI-11D6] | 5 | 5.30 | –
39 | O=C1NC(=S)NC(=O)C1=Cc1ccc(-c2ccc(Cl)c(Cl)c2)o1 [BI-11C3] | 2.1 | 5.68 | –
